Measured values taken from US11639940B2, “Method for determining sensitivity of cyclin-dependent kinase 4/6 inhibitor” (SYSMEX CORPORATION, priority 2019, dated 2023).
Read-outs that look alike come from different tables or passages of the source.

Experiments:
[1] = tested on: DU4475; assay: cytotoxicity test using WST-8 (number of viable cells); assay type: cell-based; conditions: Homo sapiens, DU-4475, 48 h, DU4475, 48 hours
Text: (§1) Six types of breast cancer cell lines, T47D, MCF7, HCC1500, CAMA-1, DU4475 and MDA-MB-231, were used. T47D, MCF7, HCC1500 and CAMA-1 are HER2-negative/ER-positive breast cancer cell lines, and DU4475 and MDA-MB-231 are cell lines derived from triple negative breast cancer (TNBC). […] In the analysis, the survival rate of the untreated cell line was set to 100%.

[2] = tested on: HCC1500; assay: as above; assay type: cell-based; conditions: HCC1500, 48 hours
Text: as §1

[3] = tested on: MCF7; assay: as above; assay type: cell-based; conditions: Homo sapiens, MCF7, 48 hours
Text: as §1

[4] = tested on: MDA-MB-231; assay: as above; assay type: cell-based; conditions: Homo sapiens, MDA-MB-231, 48 hours
Text: as §1

[5] = tested on: T47D; assay: as above; assay type: cell-based; conditions: Homo sapiens, 48 hours
Text: as §1

[6] = tested on: CAMA-1; assay: as above; assay type: cell-based; conditions: Homo sapiens, CAMA-1, 48 hours
Protocol: as §1, with “100%. The IC50 value was calculated from the normalized data by performing curve fitting using KaleidaGraph 4.0.” for “100%.”

[7] = tested on: CDK2; assay: expression level by Western blot in lysate of treated breast cancer cell lines; assay type: cell-based; conditions: 48 h
Protocol: (§2) After 48 hours, cells were recovered.
(§3) To quantitatively analyze the expression levels, recombinant CDK proteins (rCDK2, rCDK4 and rCDK6) were electrophoresed at 5.0 ng, 2.5 ng, 1.0 ng, 0.75 ng, 0.5 ng and 0.2 ng as standard proteins.

[8] = tested on: CDK6; assay: as above; assay type: cell-based; conditions: 48 h
Protocol: as §2, §3

[9] = tested on: CDK2; assay: CDK activity (phosphorylated substrate peptide, HISCL ELISA) in lysate of treated breast cancer cell lines; assay type: cell-based; parameters: CDK2 Activity: unit not given here; conditions: 48 h; for CDK2 Specific activity: activity/expression level
Protocol: After 48 hours, cells were recovered. […] Specifically, it was performed as follows. […] The composition of the substrate solution was as follows. […] The measurement was performed by Automated Immunoassay System […] Corporation). This measurement is based on ELISA on magnetic particles.

[10] = tested on: breast cancer cell lines; assay: cytotoxicity test using WST-8, summary over the cell lines; assay type: cell-based
Text: as §1

[11] = tested on: CDK4; conditions: 48 h
Protocol: After 48 hours, cells were recovered. A cell solubilization buffer was added to a cell pellet to be 5×10^7 cells/mL to lyse the cells, and the supernatant was recovered by centrifugation to obtain a cell lysate (hereinafter also referred to as a “lysate sample”).
The expression levels of CDK2, CDK4 and CDK6 were measured by Western blot as follows. Samples for electrophoresis (1 mg/mL lysate sample, 2×sample buffer and 10% 2-mercaptoethanol) were prepared from each lysate sample obtained in the above (2). Each of samples for electrophoresis (10 μL/lane) was electrophoresed on a polyacrylamide gel. To quantitatively analyze the expression levels, recombinant CDK proteins (rCDK2, rCDK4 and rCDK6) were electrophoresed at 5.0 ng, 2.5 ng, 1.0 ng, 0.75 ng, 0.5 ng and 0.2 ng as standard proteins. The gel after electrophoresis was transferred to a membrane by a conventional method, and a primary reaction was performed using an anti-CDK2 antibody, an anti-CDK4 antibody, and an anti-CDK6 antibody. Then, a secondary reaction was performed using an HRP-labeled antibody, and further reacted with SuperSignal West Femto Substrate (Thermo Fisher), and a chemiluminescent signal was detected with an X-ray film. The blot was quantitatively analyzed by Image Lab 5.2.1 (Bio Rad) to calculate the expression levels (nmol/L) of CDK2, CDK4 and CDK6 in each lysate sample.

Structure (SMILES): CC(=O)c1c(C)c2cnc(Nc3ccc(N4CCNCC4)cn3)nc2n(C2CCCC2)c1=O [palbociclib]
- IC50 [1]: > 10000 nM
- IC50 [2]: 5360 nM
- IC50 [3]: 767 nM
- IC50 [4]: 475 nM
- IC50 [5]: 202 nM
- IC50 [6]: 888 nM
- Expression level CDK2 ([7]; CAMA-1, palbociclib 426 nM): 2.8 nmol/L
- Expression level CDK2 ([7]; DU4475, palbociclib 426 nM): 12.3 nmol/L
- Expression level CDK2 ([7]; HCC1500, palbociclib 426 nM): 2.9 nmol/L
- Expression level CDK2 ([7]; MCF7, palbociclib 426 nM): 3.0 nmol/L
- Expression level CDK2 ([7]; MDA-MB-231, palbociclib 426 nM): 3.0 nmol/L
- Expression level CDK2 ([7]; T47D, palbociclib 426 nM): 5.7 nmol/L
- Expression level CDK6 ([8]; CAMA-1, palbociclib 426 nM): 0.4 nmol/L
- Expression level CDK6 ([8]; DU4475, palbociclib 426 nM): 60.9 nmol/L
- Expression level CDK6 ([8]; HCC1500, palbociclib 426 nM): 0.4 nmol/L
- Expression level CDK6 ([8]; MCF7, palbociclib 426 nM): 4.3 nmol/L
- Expression level CDK6 ([8]; MDA-MB-231, palbociclib 426 nM): 20.1 nmol/L
- CDK2 Activity ([9]; CAMA-1, palbociclib 426 nM): 0.7
- CDK2 Specific activity ([9]; CAMA-1, palbociclib 426 nM): 0.25
- CDK2 Activity ([9]; DU4475, palbociclib 426 nM): 14.5
- CDK2 Specific activity ([9]; DU4475, palbociclib 426 nM): 1.17
- CDK2 Activity ([9]; HCC1500, palbociclib 426 nM): 0.7
- CDK2 Specific activity ([9]; HCC1500, palbociclib 426 nM): 0.25
- CDK2 Activity ([9]; MCF7, palbociclib 426 nM): 1.6
- CDK2 Specific activity ([9]; MCF7, palbociclib 426 nM): 0.53
- CDK2 Activity ([9]; MDA-MB-231, palbociclib 426 nM): 0.7
- CDK2 Specific activity ([9]; MDA-MB-231, palbociclib 426 nM): 0.24
- CDK2 Activity ([9]; T47D, palbociclib 426 nM): 2.1
- CDK2 Specific activity ([9]; T47D, palbociclib 426 nM): 0.36
- IC50 ([10]; average over the breast cancer cell lines, read-out: IC50 Average): 1540 nM
- IC50 ([10]; median over the breast cancer cell lines, read-out: IC50 Median): 767 nM
- Expression level CDK4 ([11]; CAMA-1, palbociclib 426 nM): 18.9 nmol/L
- Expression level CDK4 ([11]; DU4475, palbociclib 426 nM): 16.6 nmol/L
- Expression level CDK4 ([11]; HCC1500, palbociclib 426 nM): 12.7 nmol/L
- Expression level CDK4 ([11]; MCF7, palbociclib 426 nM): 39.4 nmol/L
- Expression level CDK4 ([11]; MDA-MB-231, palbociclib 426 nM): 20.7 nmol/L
- Expression level CDK4 ([11]; T47D, palbociclib 426 nM): 18.8 nmol/L
